Measurements reported in US20210139435A1, “PROSTAGLANDIN ANALOGS AND USES THEREOF” (Lifex Biolabs, Inc., priority 2019, published 2021).

These compounds were tested against T1, mouse Nurr1 full-length (Mus musculus, UniProt Q06219) (assay: Luciferase reporter gene assay for Nurr1 transcriptional activity in SK-N-BE2C cells). Settings: relative activity over control (luminescence value; 1.0).
T1 construct: pcDNA3.1 Myc/His mouse Nurr1 full-length construct; expressed in transfected cells; host or cells: SK-N-BE2C
T1 sequence (Q06219 whole entry): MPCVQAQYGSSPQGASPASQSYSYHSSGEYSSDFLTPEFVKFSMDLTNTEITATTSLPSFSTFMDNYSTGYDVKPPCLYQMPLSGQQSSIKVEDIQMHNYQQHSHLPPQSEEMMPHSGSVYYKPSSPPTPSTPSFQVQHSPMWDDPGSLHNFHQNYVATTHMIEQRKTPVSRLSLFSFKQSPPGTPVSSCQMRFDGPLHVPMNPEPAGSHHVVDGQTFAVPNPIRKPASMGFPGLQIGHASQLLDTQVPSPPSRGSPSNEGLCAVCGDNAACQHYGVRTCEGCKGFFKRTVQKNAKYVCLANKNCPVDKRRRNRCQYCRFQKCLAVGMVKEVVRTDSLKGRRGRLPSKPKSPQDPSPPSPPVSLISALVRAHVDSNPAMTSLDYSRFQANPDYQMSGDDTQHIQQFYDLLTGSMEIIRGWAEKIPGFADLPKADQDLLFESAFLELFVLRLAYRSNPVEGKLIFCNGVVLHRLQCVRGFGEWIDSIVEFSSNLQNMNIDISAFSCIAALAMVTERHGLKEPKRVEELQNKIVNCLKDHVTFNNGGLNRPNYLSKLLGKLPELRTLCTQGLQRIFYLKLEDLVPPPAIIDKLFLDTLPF
Assay type: cell-based
Experimental: To investigate whether the PG analogs of the present invention activate Nurr1 function, the inventors of the present invention employed an reporter gene assay and examined the transcriptional activation as described in Kim, C.-H. et al., Proceedings of the National Academy of Sciences 112, 8756-8761, doi:10.1073/pnas.1509742112 (2015).
The gene assay was performed by Luciferase assay as described below:
[Protocol for Luciferase Assay to Determine Nurr1 Transcriptional Activity] • 1. SK-N-BE2C cells were maintained in HyClone™ DMEM High Glucose (Cat. No.: SH30022.01) with 10% (v/v) fetal bovine serum (FBS), 100 units/ml penicillin and 100 μg/ml streptomycin. • 2. Seed 1.5×10^5 SK-N-BE2C cells/well into a 24-well plate and incubate at 37° C. with 5% CO2 for 24 hours. • 3. After 24 hours, transfect cells with pcDNA3.1 Myc/His mouse Nurr1 full-length construct, firefly luciferase reporter vector (pGL-3 basic from Promega, Cat. No.:E1751; with appropriate response element cloned in) and Renilla luciferase control vector (pRL-null from Promega, Cat. No.:E2271) in the ratio of 8:1:1 (Nurr1: firefly: renilla) or 400 ng, 50 ng and 50 ng respectively, amounting to a total of 500 ng in the 50 μl transfection mix for 1 well. • 4. To make the transfection mix, first prepare the DNA with P3000 reagent by adding the appropriate amount of DNA with 1 μl P3000 reagent and top up with Opti-MEM® I Reduced-Serum Media (from ThermoFisher Scientific [Cat. No.: 31985070]) to 25 μl. Incubate for 5 minutes at room temperature. • 5. Make another mix consisting of 1 μl Lipofectamine 3000 reagent with 24 μl Opti-MEM® I Reduced-Serum Media per well. Add this Lipofectamine mix to the previous DNA-P3000 mix (after the previous 5 minute incubation) and incubate them for 15 minutes at room temperature. [P3000:Lipofectamine=1:1]. • 6. In the meantime, change the media in the sample wells with fresh DMEM media without antibiotics. • 7. After 15 minutes incubation, add the 50 μl transfection mix into each well and incubate the plate for 24 hours at 37° C. with 5% CO2. • 8. After 24 hours, change the media to normal DMEM media with antibiotics and add various doses of compounds into designated wells and incubate the plate for another 24 hours at 37° C. with 5% CO2. • 9. Following the 24-hour incubation period, luciferase assay can be conducted using Dual-Glo Luciferase® kit from Promega (Cat. No.: E2920). • 10. Lyse each tested wells for 15 minutes with 75 μl of passive lysis buffer provided in the Dual-Luciferase® kit from Promega (Cat. No.: E1910). [Alternatively, add 75 μl of PBS and 75 μl of Dual-Glo® Luciferase Reagent and incubate for 10 minutes at room temperature (cover the plate with foil to protect from light). Transfer the entire sample in each well to a Greiner CELLSTAR® 96-well white polystyrene plate then proceed to step 13]. • 11. After 15 minutes, transfer each lysed sample to a Greiner CELLSTAR® 96-well white polystyrene plate (Cat. No.:655083). • 12. To each well of lysed cells, add 75 μl of Dual-Glo® Luciferase Reagent and incubate for 10 minutes at room temperature (cover the plate with foil to protect from light). • 13. Set the measurement with a 10-second integrated measurement period. • 14. Add 75 μl of Dual-Glo® Stop & Glo® reagent into each well and incubate for 10 minutes before commencing with the same parameters as before to determine the RLU for the Renilla luciferase. • 15. The averaged reading for wells corresponding to non-transfected cells can be subtracted from each RLU reading and duplicate/triplicate readings can then be averaged. Normalization of the luminescence reading for each well can be carried out by dividing the firefly luciferase RLU with the corresponding Renilla luciferase RLU. Each drug-treated well can then be normalized against the averaged DMSO-treated well reading.
For `C=C1C[C@H](O)[C@H](C/C=C\CCCC(=O)O)[C@H]1/C=C/[C@@H](O)CCCCC` [Compound 25, 11-deoxy-11-methylene Prostaglandin D2], the “Fold activity (1 uM)” value was “B (1.1~2.0 (moderate))”. `C[C@@H](O)CCC[C@H](O)/C=C/[C@H]1[C@H](O)CC(=O)[C@@H]1CCCCCCC(=O)O` [Compound 83, 19(R)-hydroxy Prostaglandin E1] was tested, and the “Fold activity (1 uM)” value was “B (1.1~2.0 (moderate))”. With `C[C@@H](O)CCC[C@H](O)/C=C/[C@H]1[C@H](O)CC(=O)[C@@H]1C/C=C\CCCC(=O)O` [Compound 54, 19(R)-hydroxy Prostaglandin E2] the “Fold activity (1 uM)” value was “A (above 2.0 (high activity))”. `CCCCC[C@@H](O)/C=C/[C@H]1C(=O)C[C@H](O)[C@@H]1C/C=C\CCCC(=O)O` [Compound 16, 15(R)-Prostaglandin D2] was tested, and the “Fold activity (1 uM)” value was “A (above 2.0 (high activity))”. In the case of `CCCCC[C@H](O)/C=C/[C@H]1C(=O)C[C@H](O)[C@@H]1C/C=C\CCCC(=O)O` [Compound 64, Prostaglandin D2], the “Fold activity (1 uM)” value is reported as “B (1.1~2.0 (moderate))”. With `CCCCC[C@H](O)/C=C/[C@H]1[C@@H](O)CC(=O)[C@@H]1CCCCCCC(=O)O` [Compound 85, 11b-Prostaglandin E1] the “Fold activity (1 uM)” value was “C (below 1.0 (low activity))”. For `CCCCCC(O)/C=C/C1C(=O)CC(O)C1C/C=C\CCCC(=O)OCC(O)CO` (stereo not shown) [Compound 17, Prostaglandin D2-1-glyceryl ester], the “Fold activity (1 uM)” value was “B (1.1~2.0 (moderate))”. `CCCCC[C@H](O)/C=C/[C@H]1[C@H](O)CC(=O)[C@@H]1CC(=O)CCCCC(=O)O` [Compound 42, 6-keto Prostaglandin E1] was tested, and the “Fold activity (1 uM)” value was “A (above 2.0 (high activity))”. `CCCC1([C@H](O)C/C=C/[C@H]2[C@H](O)CC(=O)[C@@H]2CCCCCCC(=O)O)CCC1` [Compound 31, (R)-Butaprost (free acid)] was tested, and the “Fold activity (1 uM)” value was “B (1.1~2.0 (moderate))”. In the case of `O=C(O)CCC/C=C\CC1C(O)CC(=O)C1/C=C/C(O)CCc1ccccc1` (stereo not shown) [Compound 65, 17-phenyl trinor Prostaglandin D2], the “Fold activity (1 uM)” value is reported as “C (below 1.0 (low activity))”. In the case of `O=C(O)CCCCC(=O)CC[C@H]1[C@H](O)CC(=O)[C@@H]1CCC(=O)O` [Compound 46, tetranor-PGEM], the “Fold activity (1 uM)” value is reported as “C (below 1.0 (low activity))”. With `CCCCC[C@H](O)/C=C/[C@H]1[C@H](O)CC(=O)[C@@H]1CCCCCCCO` [Compound 89, 1,11a,15S-Trihydroxy-prost-13E-EN-9-ONE] the “Fold activity (1 uM)” value was “A (above 2.0 (high activity))”. In the case of `CCCCC[C@H](O)/C=C/[C@H]1[C@H](O)CC(=O)[C@@H]1C/C=C\CCCC(=O)NC(CO)CO` [Compound 40, Prostaglandin E2 serinol amide], the “Fold activity (1 uM)” value is reported as “C (below 1.0 (low activity))”. For `CCCCC[C@H](O)/C=C/[C@H]1[C@H](O)CC(=O)[C@@H]1CCCCCCC(=O)Nc1ccc2nccnc2c1` [Compound 7, 7-((1R,2R,3R)-3-hydroxy-2-((S,E)-3-hydroxyoct-1-enyl)-5-oxocyclopentyl)-N-(quinoxalin-6-yl)heptanamide], the “Fold activity (1 uM)” value was “A (above 2.0 (high activity))”. `CCCCCCC[C@H](O)/C=C/[C@H]1[C@H](O)CC(=O)[C@@H]1C/C=C\CCCC(=O)O` [Compound 62, 20-ethyl Prostaglandin E2] was tested, and the “Fold activity (1 uM)” value was “A (above 2.0 (high activity))”. `CCCCC[C@H](O)/C=C/[C@H]1C(=O)C[C@H](O)[C@@H]1C/C=C\CCCC(=O)NCCO` [Compound 72, Prostaglandin D2 Ethanolamide] was tested, and the “Fold activity (1 uM)” value was “C (below 1.0 (low activity))”. `CCCCC[C@H](O)C/C=C1/C(=O)C[C@H](O)[C@@H]1C/C=C\CCCC(=O)O` [Compound 41, D12-Prostaglandin D2] was tested, and the “Fold activity (1 uM)” value was “C (below 1.0 (low activity))”. In the case of `CCCCC[C@](C)(O)/C=C/[C@H]1[C@H](O)CC(=O)[C@@H]1C/C=C\CCCC(=O)O` [Compound 61, 15(S)-15-methyl Prostaglandin E2], the “Fold activity (1 uM)” value is reported as “A (above 2.0 (high activity))”. In the case of `CCCCC[C@H](O)/C=C/[C@H]1[C@@H](O)CC(=O)[C@@H]1C/C=C\CCCC(=O)O` [Compound 21, 11b-Prostaglandin E2], the “Fold activity (1 uM)” value is reported as “B (1.1~2.0 (moderate))”. With `CCCCC[C@H](O)/C=C/[C@H]1[C@H](O)CC(=O)[C@@H]1C/C=C\CCCC(=O)O` [Compound 20, Prostaglandin E2] the “Fold activity (1 uM)” value was “A (above 2.0 (high activity))”. For `CCCCC[C@H](O)/C=C/[C@H]1[C@H](O)CC(=O)[C@@H]1CCCCCCC(=O)NCCO` [Compound 88, Alprostadil Ethanolamide], the “Fold activity (1 uM)” value was “B (1.1~2.0 (moderate))”. `CCCCC[C@H](O)/C=C/[C@H]1[C@H](O)CC(=O)[C@@H]1CCCCC(=O)O` [Compound 93, 2,3-DINOR PGE1] was tested, and the “Fold activity (1 uM)” value was “C (below 1.0 (low activity))”. For `CCCCC(C)(O)C/C=C/[C@H]1[C@H](O)CC(=O)[C@@H]1CCCCCCC(=O)NOc1ccccc1` (stereo partly drawn) [Compound 10, 7-((1R,2R,3R)-3-hydroxy-2-((E)-4-hydroxy-4-methyloct-1-enyl)-5-oxocyclopentyl)-N-phenoxyheptanamide], the “Fold activity (1 uM)” value was “A (above 2.0 (high activity))”. For `CCCCC[C@H](O)/C=C/[C@H]1[C@H](O)CC(=O)[C@@H]1CCCCCCC(=O)Nc1cccc(C(=O)Nc2ccccc2)c1` [Compound 6, 3-(7-((1R,2R,3R)-3-hydroxy-2-((S,E)-3-hydroxyoct-1-enyl)-5-oxocyclopentyl)heptanamido)-N-phenylbenzamide], the “Fold activity (1 uM)” value was “B (1.1~2.0 (moderate))”. `CCCCC[C@H](O)/C=C/[C@H]1[C@H](O)CC(=O)[C@@H]1CCCCCCC(=O)Nc1ccc2cccnc2c1` [Compound 8, 7-((1R,2R,3R)-3-hydroxy-2-((S,E)-3-hydroxyoct-1-enyl)-5-oxocyclopentyl)-N-(quinolin-7-yl)heptanamide] was tested, and the “Fold activity (1 uM)” value was “A (above 2.0 (high activity))”. For `CCCCC[C@@](C)(O)/C=C/[C@H]1C(=O)C[C@H](O)[C@@H]1C/C=C\CCCC(=O)O` [Compound 49, 15(R)-15-methyl Prostaglandin D2], the “Fold activity (1 uM)” value was “C (below 1.0 (low activity))”. With `CCCC1([C@H](O)C/C=C/[C@H]2[C@H](O)CC(=O)[C@@H]2CCCCCCC(=O)OC)CCC1` [Compound 35, (R)-Butaprost] the “Fold activity (1 uM)” value was “B (1.1~2.0 (moderate))”. In the case of `O=C(O)CCC/C=C\C[C@H]1C(=O)C[C@@H](O)[C@@H]1/C=C/[C@@H](O)Cc1ccccc1` [Compound 30, 16-phenyl tetranor Prostaglandin E2], the “Fold activity (1 uM)” value is reported as “A (above 2.0 (high activity))”. With `CCCCC[C@H](O)/C=C/[C@H]1[C@H](O)CC(=O)[C@@H]1CCCCCCC(=O)OCc1ccccc1` [Compound 15, benzyl 7-((1R,2R,3R)-3-hydroxy-2-((S,E)-3-hydroxyoct-1-enyl)-5-oxocyclopentyl)heptanoate] the “Fold activity (1 uM)” value was “A (above 2.0 (high activity))”. `CCCCCC(=O)CCC1C(=O)CC(O)C1CCCCCCC(=O)O` (stereo not shown) [Compound 79, 13,14-dihydro-15-keto Prostaglandin D1] was tested, and the “Fold activity (1 uM)” value was “C (below 1.0 (low activity))”. With `CCCCC[C@](C)(O)/C=C/[C@H]1C(=O)C[C@H](O)[C@@H]1C/C=C\CCCC(=O)O` [Compound 57, 15(S)-15-methyl Prostaglandin D2] the “Fold activity (1 uM)” value was “B (1.1~2.0 (moderate))”.
